Molecular target: T1, α-Gal A mutant form Q250K (Homo sapiens, UniProt P06280, Q250K)
T1 construct: expressed in transfected cells; host or cells: HEK-293
T1 sequence (P06280 32-429 Q250K): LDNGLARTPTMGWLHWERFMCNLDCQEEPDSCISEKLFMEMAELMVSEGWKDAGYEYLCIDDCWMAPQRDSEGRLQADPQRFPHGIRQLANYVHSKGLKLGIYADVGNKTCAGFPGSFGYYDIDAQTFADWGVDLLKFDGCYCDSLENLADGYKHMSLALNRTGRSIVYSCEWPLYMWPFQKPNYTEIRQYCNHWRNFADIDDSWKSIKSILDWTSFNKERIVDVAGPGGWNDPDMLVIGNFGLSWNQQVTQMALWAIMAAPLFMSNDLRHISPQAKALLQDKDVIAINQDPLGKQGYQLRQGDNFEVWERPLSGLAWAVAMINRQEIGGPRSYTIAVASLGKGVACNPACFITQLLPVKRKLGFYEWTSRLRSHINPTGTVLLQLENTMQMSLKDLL
Assay: α-Gal A activity in lysates of transfected HEK-293 cells, Q250K
Format: cell-based
Experimental: Baseline and 10 μM migalastat α-Gal A activity: Differences in the α-Gal A activity between lysates incubated in the absence and presence of 10 μM migalastat were determined using a one-tailed, Mann Whitney U test; an increase at 10 μM migalastat with a p<0.05 was considered significant.
10 μM migalastat α-Gal A activity (% WT)=(α-Gal A activity in mutant transfected cell lysates incubated with 10 μM migalastat÷α-Gal A activity in wild-type transfected cell lysates without migalastat)*100.
Absolute increase (% WT)=is the 10 μM migalastat α-Gal A activity (% WT) minus the baseline α-Gal A activity (% WT).
Relative increase is the 10 μM migalastat α-Gal A activity in mutant transfected cell lysates÷baseline α-Gal A activity in mutant transfected cell lysates incubated without migalastat.

Absolute increase (% WT) (10 μM migalastat minus baseline): 25.5 % WT
Relative increase (10 μM migalastat ÷ baseline activity): 2.58
10 nM migalastat α-Gal A activity (HEK-293 lysates, 10 nM migalastat as printed, 5 days, mean ± SEM): 11325 ± 1111 nmol/mg/h
10 μM migalastat α-Gal A activity (% WT) (HEK-293 lysates, 10 μM migalastat, 5 days, mean ± SEM): 41.6 ± 3.1 % WT
Compound: OC[C@H]1NC[C@H](O)[C@@H](O)[C@H]1O [migalastat, (2R,3S,4R,5S)-2-(hydroxymethyl) piperdine-3,4,5-triol]

— patent US12594268B2, “Methods of treating Fabry disease in patients having a mutation in the GLA gene” (Amicus Therapeutics, Inc., priority 2018, dated 2026)
